From US8816151B2, “Stat5b transgenic mice and methods of use thereof” (Georgia Health Sciences University Research Institute, Inc., priority 2012, dated 2014)

Tests used:
CD150 = CD150 expression by FACS in treated NOD.Stat5bTg mice; type: in vivo, mouse; settings: for CD150 expression on CD8+ thymocytes: NOD.Stat5bTg mice, treatment for 2 weeks, intraperitoneal; for CD150 expression in peripheral blood CD8+ T cells: 10-week old NOD.Stat5bTg mice treated for 2 weeks
Procedure: (§1) AG490 (30 mg/kg/day) and STAT5 inhibitor CNH (40 mg/kg/day) purchased from Calbiochem (La Jolla, Calif.) were injected intraperitoneally into F1 and NOD.Stat5b transgenic lines. Xanthohumol and apigenin (>98% purity by HPLC) purchased from Sigma (St. Louis, Mo.) were used in the chemoprevention experiments. Xanthohumol (100 mg/kg/day) and Apigenin (200 mg/kg/day) were injected alone or in combination intraperitoneally into NOD.Stat5b^Tg mice.
(§2) Single-cell suspensions from thymus, spleen, lymph nodes and hollow fibers were stained and analyzed using a fluorescence-activated cell sorting (FACS) flow cytometer (BD Biosciences) with CELLQuest 3.3 software (Becton Dickinson, San Jose, Calif.). All antibodies were purchased from BD PharMingen (San Diego, Calif.) except anti-CD150-PE from Biolegend (San Diego, Calif.). For intracellular staining, cells were fixed and permeablized using Cytofix/Cytoperm solution (BD PharMingen), followed by P-Stat5 (pY694)-APC staining.

[1] = tested on: CD8+ lymphoma cells derived from F1.Stat5bTg mice; experiment: In vivo hollow fiber assay, lymphoma cells from F1.Stat5bTg mice; design: species or system mouse; settings: hollow fiber assay (data not shown)
[2] = tested on: Ckmt2, Dgat2, Myl4, Csrp3, Nppa, Sln and Myh6; experiment: Real-time RT-PCR of genes up-regulated in NOD.Stat5bTg mice; type: in vivo, mouse; settings: normalized with GAPDH, versus vehicle-treated NOD.Stat5bTg mice
Procedure: as §1
RNA was isolated from thymus using the miRACLE™ total RNA isolation kit (Jinfiniti Biosciences) or RNeasy® kit (QIAGEN) and used for microarray and real-time RT-PCR analyses. The Illumina's MouseRef-8 v2.0 Expression BeadChip was used for transcriptional analysis. This BeadChip targets approximately 25,600 well-annotated RefSeq transcripts, over 19,100 unique genes, and enables the interrogation of eight samples in parallel. Probe preparation and hybridization were carried out according to Manufacture's recommendation. The microarray data are MIAME compliant and have been deposited in NCBI Gene Expression Omnibus and are accessible through GEO Series accession number GSE31526.
Real-time PCR was carried out in 96-well PCR plates using the ABI Prism 7900HT real-time PCR instrument (Applied Biosystems, Roche). […] The fluorescent signal was measured at the end of the annealing/elongation step in each cycle.

[3] = tested on: Lymphoma cells from NOD.Stat5bTg mice; experiment: In vivo hollow fiber assay, lymphoma cells from NOD.Stat5bTg mice; design: species or system mouse; settings: lymphoma cells from NOD.Stat5bTg mice in hollow fibers in nude mice, 4 days of daily treatment
From the text: Cellmax implant membranes were purchased from Spectrum Laboratories Inc. (Rancho Dominguez, Calif.). Lymphoma cells from NOD.Stat5b^Tg mice were harvested, suspended in cold phosphate buffered saline (PBS) and introduced into a 15 cm length of hollow fiber. The fiber was heat-sealed at 20 mm intervals, and each segment was separated using a pair of scissors. Intraperitoneal implantation in methoxyflurane anesthetized 6 week-old nude mice were accomplished via a dorsal incision which allowed passage of the hollow fiber into abdomen. The abdominal wall is closed using skin staples. After 3 days of transplantation, mice with implants were treated daily with either AG490 (30 mg/kg/day) or CNH (40 mg/kg/day). Single cell suspensions were obtained after 4 days of treatment by cutting off the sealed ends of the fibers. Cells were then washed twice with PBS and further processed for flow cytometry.
Single-cell suspensions from thymus, spleen, lymph nodes and hollow fibers were stained and analyzed using a fluorescence-activated cell sorting (FACS) flow cytometer (BD Biosciences) with CELLQuest 3.3 software (Becton Dickinson, San Jose, Calif.). All antibodies were purchased from BD PharMingen (San Diego, Calif.) except anti-CD150-PE from Biolegend (San Diego, Calif.). […]

[4] = tested on: lymphoma in NOD.Stat5bTg mice; experiment: Lymphomagenesis in NOD.Stat5bTg mice; type: in vivo, mouse; settings: 5 week-old NOD.Stat5bTg mice, three cycles of 3-week on and 3-week off
From the text: In several experiments, mice were monitored for tumors through physical examination. Mice showing sufficient signs of pain and suffering including thymic and cervical lymphoid enlargement were euthanized for a complete necropsy. Final diagnosis of disease was established by clinical, pathologic and FACS analysis. Images of H&E staining were visualized with an Axiophot I microscope (Carl Zeiss) equipped with a Plan Neofluar 40X objective (FIG. 1c). Images were captured with an Axiocam color CDD camera, and treated on a computer with Axiovision software (Carl Zeiss).
as §1
Since AG490 and STAT5b inhibitor CNH can inhibit STAT5 function and CD150 expression, they could delay lymphomagenesis. […] STAT5 inhibitors are potentially very effective in treating cancers with fewer unpleasant side effects. To test this possibility, CNH (40 mg/kg/day) was used to treat 5 week-old NOD.Stat5^Tg mice with three cycles of 3-week on and 3-week off.

CD8+ thymocytes = experiment: Number of CD8+ thymocytes in treated NOD.Stat5bTg mice; type: in vivo, mouse; settings: treatment for 2 weeks
Procedure: AG490 (30 mg/kg/day) and STAT5 inhibitor CNH (40 mg/kg/day) purchased from Calbiochem (La Jolla, Calif.) were injected intraperitoneally into F1 and NOD.Stat5b transgenic lines. Xanthohumol and apigenin (>98% purity by HPLC) purchased from Sigma (St. Louis, Mo.) were used in the chemoprevention experiments. Xanthohumol (100 mg/kg/day) and Apigenin (200 mg/kg/day) were injected alone or in combination intraperitoneally into NOD.Stat5b^Tg mice. Single-cell suspensions from thymus, spleen, lymph nodes and hollow fibers were stained and analyzed using a fluorescence-activated cell sorting (FACS) flow cytometer (BD Biosciences) with CELLQuest 3.3 software (Becton Dickinson, San Jose, Calif.). All antibodies were purchased from BD PharMingen (San Diego, Calif.) except anti-CD150-PE from Biolegend (San Diego, Calif.). For intracellular staining, cells were fixed and permeablized using Cytofix/Cytoperm solution (BD PharMingen), followed by P-Stat5 (pY694)-APC staining.

phosphorylated STAT5 = experiment: STAT5 phosphorylation (p-STAT5) by Western blotting and FACS in treated NOD.Stat5bTg mice; type: in vivo, mouse; settings: for p-STAT5 expression in thymocytes: NOD.Stat5bTg mice, treatment for 2 weeks, Western analysis and FACS; for STAT5 activation (pSTAT5) in peripheral blood CD8+ T cells: 10-week old NOD.Stat5bTg mice treated for 2 weeks, FACS
Procedure: as §1, §2
Whole cell extracts were prepared from thymus or spleens using RIPA lysis buffer (Santa Cruz) supplemented with protease inhibitors. Western blot analysis was carried out as reported (29) by probing the blots with rabbit anti-phospho-Stat5 (Tyr694), rabbit anti-Stat5 or mouse anti-β-actin (Santa Cruz biotechnology), washed, and incubated with a horseradish peroxidase-conjugated anti-rabbit or anti-mouse antibody (Santa Cruz biotechnology). Immunopositive bands were photographed (Versadoc; Bio-Rad) after blots were developed with an enhanced chemiluminescent substrate (Pierce Chemical Co).

Row | Structure (SMILES) | CD150 expression on CD8+ thymocytes (CD150) | survival of CD8+ lymphoma cells [1] | expression of genes up-regulated in NOD.Stat5bTg mice (Ckmt2, Dgat2, Myl4, Csrp3, Nppa, Sln and Myh6) in thymocytes [2] | apoptosis of lymphoma cells (Annexin V) [3] | age before which treated mice were free of lymphomas [4] [weeks] | percentage of treated mice that developed lymphoma by 30 weeks of age [4] [%] | number of CD8+ thymocytes (CD8+ thymocytes) | p-STAT5 expression in thymocytes (phosphorylated STAT5) | CD150 expression in peripheral blood CD8+ T cells (CD150) | STAT5 activation (pSTAT5) in peripheral blood CD8+ T cells (phosphorylated STAT5)
1 | O=C(NN=Cc1coc2ccccc2c1=O)c1cccnc1 [CNH, chromone-based nicotinyl hydrazone] | significantly decreased | did not alter | did not significantly down-regulate | significantly increased | ≥ 27 | 17 | significantly decreased | did not decrease |  | 
2 | O=c1cc(-c2ccc(O)cc2)oc2cc(O)cc(O)c12 [Apigenin] |  |  |  |  |  |  |  |  | significantly inhibit | significantly inhibit
3 | N#C/C(=C/c1ccc(O)c(O)c1)C(=O)NCc1ccccc1 [AG490] | inhibited | did not alter | did not significantly down-regulate | significantly increased |  |  | greatly decreased | dramatic decrease |  | 
4 | COc1cc(O)c(CC=C(C)C)c(O)c1C(=O)/C=C/c1ccc(O)cc1 [Xanthohumol] |  |  |  |  |  |  |  |  | significantly inhibit | significantly inhibit
